Reference: US10143668B2, “Hydroxy-substituted amino and ammonium derivatives and their medical use” (GRI BIO, INC., priority 2011, dated 2018)
pIC50: −log10 of the molar value.

What was measured:
RBL-2H3 cells [1] = assay: Inhibition of mast cell degranulation (β-hexosaminidase release); format: cell-based; settings: Rattus norvegicus, RBL-2H3 cells sensitized with anti-DNP IgE, triggered with DNP-HSA
Excerpt: Mast cells are key effector cells involved in allergic and inflammatory diseases, and the Rat Basophilic Leukemia clone 2H3 (RBL-2H3) cell line is a commonly used model of allergen dependent immune modulator release (degranulation) in mast cells. On their surface, they express the high affinity receptor for IgE (FcεRI) Upon binding of antigen-specific IgE to the receptor, cells become sensitized to the IgE specific antigen (allergen). When IgE-sensitized cells then encounter multivalent antigen, the antigen clusters IgE-FcεRI complexes and initiates a signal transduction cascade that leads to degranulation, that is, the release of inflammatory mediators, such as cytokines, eicosanoids, histamine and enzymes. The assay can be used as a screening method to identify immune-modulating compounds, in particular compounds useful in the medical management of allergic and inflammatory diseases and asthma. β-hexosaminidase was previously shown to be released with the same kinetics as histamine (Schwartz et al., J Immunology; 123:1445-1450 (1979)), thus offering a simple means to monitor degranulation. The RBL-2H3 cell line has been successfully used to identify compounds with anti-allergic activity (Choo et al. Planta Med., 69:518-522 (2003)).
Cell Culture: RBL-2H3 cells obtained from the German Collection of Microorganisms and Cell Cultures (ACC312) (Braunschweig, Germany) were maintained in 70% Minimum Essential Medium with Earle's Salts, 20% RPMI 1640 Medium, 10% FBS and 2 mM L-glutamine in 95% air/5% CO2 at 37° C. and routinely checked for mycoplasma contamination. Cells were passaged every 3-4 days; after washing cells once with 35 ml PBS cells were incubated 8 min with 5 ml 0.05% Trypsin-EDTA solution at 37° C. Cells were removed from the incubator, 15 ml culture medium was added and cells were resuspended by repeated pipetting.
Cell seeding: cells were harvested with Trypsin-EDTA as described and 50-100 μl cell suspension seeded into Costar CellBind 24 well cluster plates (no. 3337). Plates were kept for 30 min at RT under the sterile hood before being transferred to the incubator. Cells were used within one or two days after seeding.
For sensitization, cells for immediate use were sensitized 6-12 h after plating; cells to be used the following day were sensitized 26-38 h after plating. Culture plates were removed from the incubator and checked for cell growth and contamination. The medium was discarded and cells were sensitized with anti-DNP IgE (0.4 μg/ml) in 0.4 ml culture medium overnight. Following overnight sensitization, cells were washed with 0.8 ml pre-warmed TyB and 0.38 ml test compound or vehicle control (supplemented or not with 1% FBS) were added to duplicate wells. Samples were adjusted to contain 1% vehicle for test compounds dissolved in organic solvents. Cells were incubated for 1 h at 37° C. At the end of the incubation period, cells were routinely stimulated with 20 μl DNP-HSA (2 μg/ml; final concentration 0.1 μg/ml) diluted in TyB and cells were incubated for 15 min at 37° C. Alternatively, cells were stimulated with 20 μl 5 μM ionomycin (final concentration 0.25 μM) or 20 μl 5 μM thapsigargin (final concentration 0.25 μM), both in the absence or presence of 20 nM PMA (final concentration). […]
MUG substrate solution, 100 μl, were added to supernatant and lysate samples and plates were incubated 30 min at 37° C. […] Fluorescene was measured at 365 nm excitation and 440 nm emmission wavelengths. […]

[2] = system: local lymph node reaction; assay: Local lymph node weight and cell count after TDI challenge; settings: topical, diflorasone 0.1% and 0.5%, 1a 2% or 6%
Experimental: Directly after sacrifice, the ear draining lymph node (Ln. auricularis) was prepared and excised. Organ weight was determined by means of an analytical balance (Kern, Balingen, Germany). Single cell suspensions were prepared by means of a glass potter (VWR, Darmstadt, Germany) and cells were counted with a hemocytometer (Neubauer, VWR, Germany).
One of the most undesirable side-effects of corticosteroid administration is immunosuppression, which leads to the inability to effectively address parasitic infection, wound healing and tumor growth. In the current study, the local lymph node reaction after TDI challenge (lymph node weight and cell number) was determined to assess the response of immune organs.

RBL-2H3 cells [3] = assay: Maximum tolerated concentration (cytotoxicity by lactate dehydrogenase release); format: cell-based, rat
Excerpt: The safety index (SI) of a test compound is the ratio between the maximum tolerated concentration and the IC50 and is used as a measure of the relative safety of the test compound.

CCCCCCCCCCCCCC[N+](C)(C)CC(=O)N(C)C[C@H](O)[C@@H](O)[C@H](O)[C@H](O)CO [Compound 1a, N-(2-(Dimethyl(tetradecyl)ammonio)acetyl)-N-methyl-D-glucamine chloride]
pIC50 (RBL-2H3 cells [1]): 5.42 | local lymph node reaction (lymph node weight and cell number) [2]: only a modest effect | MTC (maximum tolerated concentration) (RBL-2H3 cells [3]; highest concentration not causing cytotoxicity (LDH release)): 150 µM | SI (safety index) (RBL-2H3 cells [3]; ratio between MTC and IC50): 39.5
